{"source": "ChEMBL document CHEMBL4602643", "about": "“Anti-inflammatory activities of isopimara-8(14),-15-diene diterpenoids and mode of action of kaempulchraols P and Q from Kaempferia pulchra rhizomes” (Bioorg Med Chem Lett, 2020)", "key": {"RAW264.7 [1]": {"test_system": "RAW264.7", "assay": "Anti-inflammatory activity in mouse RAW264.7 cells assessed as inhibition of LPS-induced NO production at 50 uM relative to control", "format": "functional"}, "[2]": {"assay": "Cytotoxicity against mouse RAW264.7 cells assessed as cell survival at 10 uM", "format": "cell-based", "settings": "read-out: Activity"}, "RAW264.7 [3]": {"test_system": "RAW264.7", "assay": "Inhibition of NF-kappaB activation in mouse RAW264.7 cells expressing luciferase gene at 5 to 25 uM by luciferase reporter gene assay", "format": "cell-based"}, "RAW264.7 [4]": {"test_system": "RAW264.7", "assay": "Inhibition of LPS-induced NF-kappaB activation in mouse RAW264.7 cells expressing luciferase gene at 5 to 25 uM by luciferase reporter gene assay", "format": "cell-based"}, "RAW264.7 [5]": {"test_system": "RAW264.7", "assay": "Anti-inflammatory activity in mouse RAW264.7 cells assessed as inhibition of LPS-induced NO production at 5 uM relative to control", "format": "functional"}, "RAW264.7 [6]": {"test_system": "RAW264.7", "assay": "Anti-inflammatory activity in mouse RAW264.7 cells assessed as inhibition of LPS-induced NO production at 100 uM relative to control", "format": "functional"}, "[7]": {"assay": "Cytotoxicity against mouse RAW264.7 cells assessed as cell survival at 50 uM", "format": "cell-based", "settings": "read-out: Activity"}, "RAW264.7 [8]": {"test_system": "RAW264.7", "assay": "Anti-inflammatory activity in mouse RAW264.7 cells assessed as inhibition of LPS-induced NO production", "format": "functional, cell-based"}, "RAW264.7 [9]": {"test_system": "RAW264.7", "assay": "Cytotoxicity against mouse RAW264.7 cells expressing luciferase reporter gene assessed as cell survival at 5 to 25 uM", "format": "cell-based", "settings": "raw264.7, 25 µM"}, "[10]": {"assay": "Cytotoxicity against mouse RAW264.7 cells assessed as cell survival at 100 uM", "format": "cell-based", "settings": "read-out: Activity"}, "RAW264.7 [11]": {"test_system": "RAW264.7", "assay": "Anti-inflammatory activity in mouse RAW264.7 cells assessed as inhibition of LPS-induced NO production at 10 uM relative to control", "format": "functional"}, "RAW264.7 [12]": {"test_system": "RAW264.7", "assay": "Antiinflammatory activity in mouse RAW264.7 cells assessed as inhibition of LPS-induced COX2 expression at 25 uM incubated for 24 hrs by Western blot analysis", "format": "functional, cell-based"}, "RAW264.7 [13]": {"test_system": "RAW264.7", "assay": "Inhibition of LPS-induced IL-6 production in mouse RAW264.7 cells at 25 uM by ELISA", "format": "functional, cell-based"}, "[14]": {"assay": "Cytotoxicity against mouse RAW264.7 cells assessed as cell survival at 5 uM", "format": "cell-based", "settings": "read-out: Activity"}}, "note": "Activity calls are given as the source filed them. The calls are words filed in the database; no cut-off is given here.", "data": [{"smiles": "C=C[C@]1(C)C=C2C[C@@H](O)[C@H]3C(C)(C)CC[C@H](OC(C)=O)[C@]3(C)[C@H]2CC1", "values": [{"measurement": "inhibition at 50 µM", "setting": "RAW264.7 [1]", "value": 71.6, "unit": "%"}, {"measurement": "viability at 10 µM", "setting": "[2]", "value": 111, "unit": "%"}, {"measurement": "inhibition", "setting": "RAW264.7 [3]", "value": "Active"}, {"measurement": "inhibition", "setting": "RAW264.7 [4]", "value": "Active"}, {"measurement": "inhibition at 5 µM", "setting": "RAW264.7 [5]", "value": 15.2, "unit": "%"}, {"measurement": "inhibition at 100 µM", "setting": "RAW264.7 [6]", "value": 81.8, "unit": "%"}, {"measurement": "viability at 50 µM", "setting": "[7]", "value": 60.3, "unit": "%"}, {"measurement": "IC50", "setting": "RAW264.7 [8]", "value": 36.1, "unit": "µM"}, {"measurement": "Activity", "setting": "RAW264.7 [9]", "value": "Non-Toxic"}, {"measurement": "viability at 100 µM", "setting": "[10]", "value": 3.39, "unit": "%"}, {"measurement": "inhibition at 10 µM", "setting": "RAW264.7 [11]", "value": 9.55, "unit": "%"}, {"measurement": "inhibition", "setting": "RAW264.7 [12]", "value": "Active"}, {"measurement": "inhibition", "setting": "RAW264.7 [13]", "value": "Active"}, {"measurement": "viability at 5 µM", "setting": "[14]", "value": 106, "unit": "%"}]}]}
